What was measured:
[1] = system: neuropathic rats (sciatic nerve constriction), nerve-injured paw; test: Sciatic nerve constriction model of peripheral neuropathy, mechanical (paw pressure) and thermal (plantar) hyperalgesia; assay type: in vivo, Sprague Dawley rats; details: for ED50: Rattus norvegicus, read-out: ED50 (antinociceptive potency); for ED50 / ED50 (antinociceptive potency): from % MPE vs. log dose curves; for antinociception in response to mechanical and thermal noxious stimuli on the nerve-injured paw: 1, 2, 4, 8 mg/kg IP
Method: (§1) Sprague Dawley (about 90 days old; 350 g) male rats were used (8 rats/drug/experimental group). R,S-norketamine, S-norketamine, R-norketamine (Yaupon Therapeutics Inc.) and R,S-ketamine (Sigma) were dissolved in saline and injected intraperitoneally (IP, 1 ml/kg). Each rat received four doses of a drug (1, 2, 4, 8 mg/kg; repeated block Latin square design; 48 h intervals). Saline served as control.
A sciatic nerve constriction model of peripheral neuropathy previously employed was used [Benett and Xie, 1988]. Briefly, under pentobarbital anesthesia (40 mg/kg, IP) the ligation of sciatic nerve and sham surgery were performed on the left and right hind paws, respectively. Proximal to the sciatic trifuracation, nerve (7 mm) was freed from adhering tissue and four loose ligatures were tied around nerve (1 mm apart) with 4.0 chromic gut, barely constricting the diameter of the nerve. The incision was closed in layers. […] No severe motor impairment was observed.
The analgesic properties of drugs were determined in neuropathic rats. Responsiveness to both mechanical and thermal noxious stimulations was determined in separate groups of rats. Rats were trained on three occasions before initiation of the study. Experiments were performed on days 7, 9, 11 and 14 of recovery from surgery (as this is the time of maximal hyperalgesia [Holtman et al., 2003]). Responses were assessed prior to (baseline, taken twice) and at 15-120 min after injection. The left and right paws were tested alternatively in each rat.
Mechanical hyperalgesia was measured using an increasing amount of weight to the paw [Randall and Selitto, 1957]. The hind paw was placed between a flat surface and a blunt pointer in the Basile Analgesimeter (UGO Basile) and increasing pressure (32 g/s) was applied to the dorsal side of the paw. Vocalization was used as end-point [vocalization threshold, VT (g)]. Cut-off at 300 g prevented tissue damage.
The thermal hyperalgesia was measured by plantar test which used a ramp heat stimulus [Hargreaves et al., 1988]. The radiant heat (60% intensity) was positioned under the glass floor directly beneath the plantar hind paw in Plantar Stimulator Analgesia Meter (IITC, Life Science). Latency of paw withdrawal from the heat source was measured [paw withdrawal threshold, PWT (s)]. A cut-off at 20 s prevented tissue damage.
All data were normalized for preinjection baseline values. Areas under the curves (AUC) were calculated for normalized data. Maximum possible effect was calculated as % MPE=(post drug response−baseline/cut off−baseline)×100. ED50 was calculated from % MPE vs. log dose curves. All data were presented as mean ±SEM of 8 rats. The statistical analysis was performed with use of one and two-way repeated measures analysis of variance (ANOVA), post hoc Student Newman Keulus (SNK), Dunnan and t tests.

intact (unoperated) rats [2] = test: Ataxia, behavioral rating scale, intact rats; assay type: in vivo, Sprague Dawley rats; details: pilot study
Method: as §1
(§2) The behavioral effects of drugs were determined in intact (unoperated) rats. Locomotor activity was determined using the Opto-Varimex infrared photocell-based activity monitor (Columbus Instrument). All activities were scored during 5 min sessions, prior to and 15, 60 and 120 min after injection. All testing were conducted between 10:00-13:00. Assessments were performed in 48 h intervals. Ataxia was determined at 0, […] after injection. The modified behavioral scale [Sturgon et al., 1979] was used for quantification (Table 1).

intact (unoperated) rats [3] = test: Locomotor activity in intact rats (Opto-Varimex activity monitor); assay type: in vivo, Sprague Dawley rats; details: highest dose 8 mg/kg IP
Method: as §1, §2

Sprague-Dawley rats [4] = test: Tail-flick test (radiant thermal stimulus); assay type: in vivo; details: for antinociception, drug alone, IP: morphine 2-10 mg/kg, S-norketamine 0.75-3 mg/kg; for antinociception, drug alone, IT: morphine 3-30 μg, S-norketamine 10-100 μg
Method: A dose response curve was generated by determining the analgesic effects of combining a constant dose of an opioid (e.g., morphine) along with an increasing dose of R,S-norketamine, Male and female Sprague-Dawley rats (n=8/sex) all with an approximate age of 85 to 90 days. Each rat should be weighed, prior to being subjected to any tests, on the day of the experiment. Experiments were performed in 72 hour intervals, and prior to the test, the rats were habituated for three days to handling and the tail-flick procedure without heat exposure. • 1 The tail-flick apparatus (IITC Model 33, Life Science, Woodland Hills, Calif.) is pre-warmed for at least 30 minutes. • 2 The intensity of the lamp is adjusted so that baseline tail-flick latency for the rats is equal to approximately 2.0 seconds. […] Tail-flick latency (“TFL”) is measured twice in an approximate 15 minute intervals and an average of the two times determines the baseline. • 8 Once the baseline value is determined, TFL is measured, following the injection of drugs, at times 15, 30, 60 and 120 minutes.
• Normalize data for baseline value (postinjection value at each time point−average preinjection baseline). • Calculate area under the curve (AUC0-120min) for normalized data. • Calculate maximum area under the curve (AUCmax), assuming 10 second response for each time point. • Calculate % MPE=(AUC0-120min)/(AUCmax)×100. • Post-injection thresholds are compared to the baseline threshold using paired t-test. • The difference between doses will be analyzed by 2 way RM ANOVA. • The difference between sex will be analyzed by 2 way RM ANOVA. • All data are presented as mean ±SEM of n rats.
• Normalized data (NOR): subtract average baseline from each value NOR=(post-injection TFL)−(pre-injection baseline) • 12 Percent maximum effect (MPE): • % MPE=(post-injection value−pre-injection baseline)/(cut-off−pre-injection baseline)×100% • 13 Area under the time action curve (AUC0-120 min) calculated by trapezoidal rule • Individual AUC0-120 min.=(average value over the time interval)×(time interval) • Total AUC0-120 min.: sum of individual AUC • Example: AUC0-120 min., % MPE=(15-0 min)×[(MPE0+MPE15)×½]+(30−15)×[(MPE30+MPE15)×½]
A study was undertaken to determine whether S-norketamine (“norKET”) enhances the analgesic effect of morphine (“MOR”). […] Saline (vehicle) served as a control. Responsiveness to thermal noxious stimuli was determined using the tail-flick assay (baseline tail-flick latency (TFL) ˜2-3 s; cut off TFL=10 s). TFL was determined at 0, 15, 30, 60, 90, and 120 min.
Male Sprague-Dawley rats, approximately 90 days old, weighting about 300 g were used. Intrathecal catheter: Chronic catheterization of the spinal subarachnoid space was performed according to Yaksh and Rudy (1976). Drugs: Morphine sulfate (Mallinckrodt) and S-norketamine hydrochloride (Yaupon Therapeutics, Inc.) were dissolved in saline. Saline served as control. Doses refer to salt forms.
Graded doses of morphine and S-norketamine alone as well as a fixed dose of morphine combined with various doses of S-norketamine were administered […] (IP) or intrathecally (IT) in volumes equal to 1 ml/kg and 10 μl, respectively. Doses were balanced by Latin square design: 2× (4×4). Injections were made at weekly intervals.
Tail flick latencies (TFL) were measured using a standard tail-flick apparatus (LifeScience). Preinjection baseline and cut-off times were equal to 2-3 s and 10 s, respectively. TFL was assessed twice prior to (baseline) and at fixed time points after injection. All data were normalized for baseline. The areas under the time action curves (AUC0-120 min) were calculated for normalized data. The percent of maximum effect was calculated as % MPE=[(TFL-baseline)/(10-baseline)×100] at each time point. Data are presented as mean ±SEM of (n) rats.

[5] = Aun, 1999, cited from earlier work
[6] = Plasma levels of S-norketamine versus antinociception (pilot study); assay type: in vivo; details: after IP administration in rat
Method: Plasma concentration of S-norketamine 200-700 ng/ml was associated with the significant analgesic effect after IP administration in rat.

Sprague-Dawley rats [7] = test: Opioid tolerance development, tail-flick test; assay type: in vivo; details: for effect on oxycodone tolerance development: S-norketamine given with oxycodone, IP
Method: A tail flick test as described above was administered intrapertoneally to eight Sprague-Dawley rats as described above. The * symbol denotes a statistically difference with oxycodone and norketamine combined versus the two drugs used alone. Data were analyzed with the SNK method, with P less than 0.05. […] A tail flick test as described above was administered intrapertoneally to eight Sprague-Dawley rats as described above. The * symbol denotes a difference with oxycodone used alone as compared to the combination of oxycodone with S norketameine and the +symbol denotes a difference from day 1. Data were analyzed with the SNK method, with P less than 0.05.

rat = test: Analgesic dose of norketamine in the rat; assay type: in vivo
Method: An “optimal” dose is defined as a dose of an analgesic, when taken alone, is sufficient to provide analgesic relief. In the rat, for example, an optimal dose of norketamine is about 8 mg/kg intraperitoneally (IP). A “sub-optimal” dose is defined as about 1 to about 60% of the optimal dose used to induce analgesia; more preferably about 5% to about 40%, and even more preferably about 10% to about 20%. A “sub-analgesic” does is defined as a dose at which little to no analgesic effect is provided. For example, a sub-analgesic dose of norketamine is less than about 3 mg/kg. Typically, a sub-analgesic dose correlates with less than about 5 AUC units or less than about 5% MPE (maximum possible effect).

NMDA receptor = details: Ebert et al., 1997; cited from earlier work
rats = details: intravenous or intraspinal; cited from earlier work

## CNC1(c2ccccc2Cl)CCCCC1=O (racemic) [R,S-ketamine, 2-(2-chlorophenyl)-2-(methylamino)-cyclohexanone, reference compound]
[1]; nerve-injured paw, IP
  ED50: 15.8 ± 0.38 mg/kg
Intact (unoperated) rats [2]
  ataxia: marked ataxia

## NC1(c2ccccc2Cl)CCCCC1=O (racemic) [R,S-norketamine, 2-(2-chlorophenyl)-2-amino-cyclohexanone]
[1]; nerve-injured paw, IP
  ED50: 11.3 ± 0.23 mg/kg
  duration of antinociceptive effect: > 2 h
[1]; nerve-injured paw
  antinociception in response to mechanical and thermal noxious stimuli on the nerve-injured paw: dose-related antinociception
[1]; IP
  antinociception on the control (sham-operated) paw: No antinociception
Intact (unoperated) rats [3]
  motor (depressive) / locomotor effect: less pronounced
Intact (unoperated) rats [2]
  ataxia: no ataxia

## CN1CC[C@]23c4c5ccc(O)c4O[C@H]2[C@@H](O)C=C[C@H]3[C@H]1C5 [Morphine, reference compound]
Sprague-Dawley rats [4]; IP
  antinociception, drug alone, IP: dose-related antinociception
Sprague-Dawley rats [4]
  antinociception, drug alone, IT: dose-related antinociception
Sprague-Dawley rats [4]; morphine alone 30 μg IT
  % MPE: 60%
Sprague-Dawley rats [4]; morphine alone 10 mg/kg IP
  % MPE: 100%

## N[C@@]1(c2ccccc2Cl)CCCCC1=O [R-norketamine]
[1]; nerve-injured paw
  antinociception in response to mechanical and thermal noxious stimuli on the nerve-injured paw: attenuated, in dose-related fashion
[1]; nerve-injured paw, IP
  ED50 (antinociceptive potency): 51.1 ± 0.54 mg/kg
[1]; IP
  antinociception on the control (sham-operated) paw: Neither drug had effect

## CN[C@]1(c2ccccc2Cl)CCCCC1=O [S-ketamine, reference compound]
[5]
  potency relative to R-ketamine: twice as potent as R-ketamine

## N[C@]1(c2ccccc2Cl)CCCCC1=O [S-norketamine]
[1]; nerve-injured paw
  antinociception in response to mechanical and thermal noxious stimuli on the nerve-injured paw: attenuated, in dose-related fashion
[1]; nerve-injured paw, IP
  ED50 (antinociceptive potency): 7.3 ± 0.18 mg/kg
[1]; IP
  antinociception on the control (sham-operated) paw: Neither drug had effect
[6]
  plasma concentration associated with the significant analgesic effect: 200 to 700 ng/mL
Intact (unoperated) rats [3]
  motor (depressive) / locomotor effect: less for S than R isomer
Intact (unoperated) rats [2]
  ataxia: no ataxia
Sprague-Dawley rats [4]; IP, comparison with Holtman et al., 2003
  ability to enhance morphine analgesia compared with ketamine-morphine interaction: greater than that previously demonstrated for ketamine-morphine
Sprague-Dawley rats [4]; IP
  antinociception, drug alone, IP: did not produce an antinociceptive effect
Sprague-Dawley rats [4]
  antinociception, drug alone, IT: did not produce an antinociceptive effect
Sprague-Dawley rats [4]; S-norketamine 0.75-3 mg/kg IP with morphine 3 mg/kg IP
  potentiation of the antinociceptive effect of low dose morphine, IP: dose-dependently potentiated
Sprague-Dawley rats [4]; S-norketamine 10-100 μg IT with morphine 0.5 μg IT
  potentiation of the antinociceptive effect of low dose morphine, IT: dose-dependently potentiated
Sprague-Dawley rats [7]; S-norketamine given with morphine
  effect on morphine tolerance: reduction of morphine tolerance
Sprague-Dawley rats [7]
  effect on oxycodone tolerance development: tolerance of oxycodone is inhibited
Sprague-Dawley rats [7]; listed as S-norketamine HCl
  effect on oxycodone tolerance development: attenuation of oxycodone tolerance development

## NC1(c2ccccc2Cl)CCCCC1=O (centres unmarked) [norketamine, 2-(2-chlorophenyl)-2-amino-cyclohexanone]
rat; in vivo
  sub-analgesic dose (little to no analgesic effect): less than 3 mg/kg
rat; intraperitoneally (IP)
  optimal dose (sufficient alone to provide analgesic relief): about 8 mg/kg
NMDA receptor
  NMDA receptor binding relative to ketamine enantiomers: less tightly than either S- or R-ketamine
[5]; speculated
  anesthetic and analgesic potency relative to ketamine: one third that of ketamine
rats
  adverse sequelae relative to an equal dose of ketamine: fewer of the adverse sequelae
